This passage reports IC50 results from patent US20260062443A1 (ALEXION PHARMACEUTICALS, INC., priority 2022, published 2026).

This experiment concerns the target T1, Human complement C1s enzyme (Homo sapiens, UniProt P09871).
T1 sequence (P09871 438-688 limits assumed): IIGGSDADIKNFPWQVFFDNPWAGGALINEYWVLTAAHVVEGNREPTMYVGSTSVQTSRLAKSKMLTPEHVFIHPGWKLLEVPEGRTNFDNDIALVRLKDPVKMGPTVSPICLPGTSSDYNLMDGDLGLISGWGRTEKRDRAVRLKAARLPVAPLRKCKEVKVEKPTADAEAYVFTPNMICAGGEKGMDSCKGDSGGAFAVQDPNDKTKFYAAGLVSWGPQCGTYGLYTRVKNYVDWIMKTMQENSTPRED
T1 sequence (P09871 16-437 partner limits assumed): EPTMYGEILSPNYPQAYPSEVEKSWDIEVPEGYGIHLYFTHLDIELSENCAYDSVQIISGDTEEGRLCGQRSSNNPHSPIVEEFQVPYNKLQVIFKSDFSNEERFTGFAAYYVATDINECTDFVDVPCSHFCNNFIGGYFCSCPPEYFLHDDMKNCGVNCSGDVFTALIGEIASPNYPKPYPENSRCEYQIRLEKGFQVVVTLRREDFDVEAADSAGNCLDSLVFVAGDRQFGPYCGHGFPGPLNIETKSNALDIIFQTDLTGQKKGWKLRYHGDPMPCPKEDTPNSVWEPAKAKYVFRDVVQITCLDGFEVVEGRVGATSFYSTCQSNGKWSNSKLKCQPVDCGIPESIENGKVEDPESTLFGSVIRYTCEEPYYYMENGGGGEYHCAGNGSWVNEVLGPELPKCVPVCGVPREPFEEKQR
Kind of experiment: Human C1s enzyme assay. In kind it is biochemical. To be noted: human complement C1s enzyme 1.16 nM, substrate Z-L-Lys-SBzl 100 μM, 5 min preincubation; read-out: IC50 (Stars), C1s Inhibiting Activity. Summed up: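 Serum-purified human C1s (1.16 nM final) preincubated 5 min at room temperature with compound in 50 mM Tris, 1 M NaCl, pH 7.5. Z-L-Lys-SBzl and DTNB added at 100 μM each; A405 followed every 30 s for 30 min, and IC50 obtained by nonlinear regression of reaction rates.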
In general, IC50 refers to the concentration that gives 50% inhibition. As to `O=C(NCC(=O)N1C[C@H](OC(F)F)C[C@H]1C(=O)NCc1cc2cnccc2[nH]1)c1cc2c(cc1F)Sc1ccccc1O2` [Compound 355, (2S,4R)-N-((1H-pyrrolo[3,2-c]pyridin-2-yl)methyl)-4-(difluoromethoxy)-1-((2-fluorophenoxathiine-3-carbonyl)glycyl)pyrrolidine-2-carboxamide], the half-maximal inhibitory concentration (IC50) was below 100 nM.
As for `C[C@@H](NC(=O)C1C[C@H](COCCCCCC(=O)O)CN1C(=O)CNC(=O)c1ccc2c(c1)Oc1ccccc1S2)c1cc2cnccc2[nH]1` (stereo partly drawn) [Compound 204, 6-(((3S)-5-(((R)-1-(1H-pyrrolo[3,2-c]pyridin-2-yl)ethyl)carbamoyl)-1-((phenoxathiine-3-carbonyl)glycyl)pyrrolidin-3-yl)methoxy)hexanoic acid], the figure is below 100 nM.
As for `C[C@@H](NC(=O)[C@@H]1CC2(CN1C(=O)CNC(=O)c1ccc3oc4ccccc4c3c1)OCCO2)c1cc2cnccc2[nH]1` [Compound 300, (S)-N-((R)-1-(1H-pyrrolo[3,2-c]pyridin-2-yl)ethyl)-7-((dibenzo[b,d]furan-2-carbonyl)glycyl)-1,4-dioxa-7-azaspiro[4.4]nonane-8-carboxamide], the figure is below 100 nM.
As for `O=C(NCC(=O)N1CC[C@@H](O)[C@H]1C(=O)NCc1cc2cnccc2[nH]1)c1ccc2c(c1)Oc1ccccc1S2` [Compound 158, (2S,3R)-N-((1H-pyrrolo[3,2-c]pyridin-2-yl)methyl)-3-hydroxy-1-((phenoxathiine-3-carbonyl)glycyl)pyrrolidine-2-carboxamide], the figure is below 100 nM.
As to `O=C(NCC(=O)N1C[C@H](OC(F)F)C[C@H]1C(=O)NCc1ccn2cnnc2c1)c1ccc2c(c1)Oc1ccccc1S2` [Compound 224, (2S,4R)-N-([1,2,4]triazolo[4,3-a]pyridin-7-ylmethyl)-4-(difluoromethoxy)-1-((phenoxathiine-3-carbonyl)glycyl)pyrrolidine-2-carboxamide], the IC50 is above 1000 nM.
As for `Cn1c(C2(NC(=O)[C@@H]3C[C@]4(C)C[C@@H]4N3C(=O)CNC(=O)CCCOc3ccccc3)CC2)nc2ccncc21` [Compound 65, (1S,3S,5S)-5-methyl-N-(1-(3-methyl-3H-imidazo[4,5-c]pyridin-2-yl)cyclopropyl)-2-((4-phenoxybutanoyl)glycyl)-2-azabicyclo[3.1.0]hexane-3-carboxamide], the figure is above 1000 nM; as for `O=C(NCC(=O)N1C[C@H](OC(F)F)C[C@H]1C(=O)NCc1cnc2cn[nH]c2c1)c1ccc2c(c1)Oc1ccccc1S2` [Compound 262, (2S,4R)-N-((1H-pyrazolo[4,3-b]pyridin-6-yl)methyl)-4-(difluoromethoxy)-1-((phenoxathiine-3-carbonyl)glycyl)pyrrolidine-2-carboxamide], above 1000 nM; as for `O=C(NCC(=O)N1C[C@H](OC(F)F)C[C@H]1C(=O)NCc1cc2cnccc2[nH]1)c1ccc2oc3ccccc3c2c1` [Compound 218, (2S,4R)-N-((1H-pyrrolo[3,2-c]pyridin-2-yl)methyl)-1-((dibenzo[b,d]furan-2-carbonyl)glycyl)-4-(difluoromethoxy)pyrrolidine-2-carboxamide], below 100 nM.
As for `C[C@H](NC(=O)[C@@H]1CC2(CN1C(=O)CNC(=O)c1ccc3c(c1)-c1ccccc1C3(F)F)OCCO2)c1cc2cnccc2[nH]1` [Compound 23, (S)-N-((S)-1-(1H-pyrrolo[3,2-c]pyridin-2-yl)ethyl)-7-((9,9-difluoro-9H-fluorene-3-carbonyl)glycyl)-1,4-dioxa-7-azaspiro[4.4]nonane-8-carboxamide], the figure is above 1000 nM.
As for `Cc1cccc2c1oc1ccc(C(=O)NCC(=O)N3CCC[C@H]3C(=O)NCc3cc4cnccc4[nH]3)cc12` [Compound 336, (S)-N-((1H-pyrrolo[3,2-c]pyridin-2-yl)methyl)-1-((6-methyldibenzo[b,d]furan-2-carbonyl)glycyl)pyrrolidine-2-carboxamide], the figure is below 100 nM.
